Numbered stars: 1 amine (or outer) side, 2 acyl side, 3 side chain; on linkers, the order of the positions; unused ones are H or OH. Bridge positions count the residues as written; N and C are the ends. Square brackets hold non-standard residues; d marks the D form. Peptide text beside a SMILES is read from it. mXylylene = c1cc(C[*:1])cc(C[*:2])c1; αMeF = C[C@](N)(Cc1ccccc1)C(=O)O

A short description of series [1]: Plasma stability assay, mouse plasma. Type of series: in vitro ADME. The settings on record: 4 h incubation, 37° C., read-out: % intact compound remaining after incubation, Mouse plasma.
Series [2] addresses T1, FAP-expressing human WI-38 fibroblasts (Homo sapiens, UniProt Q12884).
T1 construct: FAP-expressing human WI-38 fibroblasts (ECACC) were cultured in EMEM; host or cells: WI-38 human fibroblasts
T1 sequence (Q12884 1-760): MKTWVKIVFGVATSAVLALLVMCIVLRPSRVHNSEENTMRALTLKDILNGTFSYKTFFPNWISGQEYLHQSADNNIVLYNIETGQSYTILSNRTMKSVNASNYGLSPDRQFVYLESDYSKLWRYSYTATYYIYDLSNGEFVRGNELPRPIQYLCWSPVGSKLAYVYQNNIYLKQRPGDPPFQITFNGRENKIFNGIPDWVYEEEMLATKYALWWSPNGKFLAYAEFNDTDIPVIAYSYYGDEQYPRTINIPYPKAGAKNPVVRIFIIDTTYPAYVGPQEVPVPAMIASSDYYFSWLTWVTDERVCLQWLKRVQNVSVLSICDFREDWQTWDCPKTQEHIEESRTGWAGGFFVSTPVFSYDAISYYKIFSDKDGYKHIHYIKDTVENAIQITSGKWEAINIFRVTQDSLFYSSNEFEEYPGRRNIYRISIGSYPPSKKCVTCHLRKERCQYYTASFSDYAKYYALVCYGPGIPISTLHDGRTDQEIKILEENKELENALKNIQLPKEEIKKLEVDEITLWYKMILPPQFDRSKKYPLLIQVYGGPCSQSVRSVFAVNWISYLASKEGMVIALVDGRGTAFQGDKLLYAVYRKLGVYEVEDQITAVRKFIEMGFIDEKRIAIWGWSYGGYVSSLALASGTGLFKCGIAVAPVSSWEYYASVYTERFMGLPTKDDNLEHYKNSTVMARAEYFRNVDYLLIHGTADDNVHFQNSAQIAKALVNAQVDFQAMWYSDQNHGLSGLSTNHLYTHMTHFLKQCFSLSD
As to the kind of experiment: Competitive FACS binding assay. The settings on record: pIC50 Category (FACS), competition with 3 nM Cy5-labeled compound, WI-38 fibroblasts, 4° C., 1 hour. How it is done: Cells were analyzed in an Attune NxT flow cytometer. […]
For orientation: In flow cytometry, cells or beads pass a laser one at a time.

Series [3] concerns the target T2, Human recombinant FAP (Homo sapiens, UniProt Q12884).
T2 sequence (Q12884 1-760): T1 sequence (Q12884 1-760)
As to the kind of experiment: FRET-based FAP protease activity assay. Type of series: biochemical. More on the design: purchased R&D systems 3715-SE. To be noted: pIC50 Category (Activity), recombinant human FAP, FRET substrate, 37° C.

By fraction remaining is commonly meant what is left of the initial amount, in per cent. By IC50 is commonly meant the concentration that gives 50% inhibition. Turning to `CSCC[C@H](NC(C)=O)C(=O)N[C@H]1CSCc2cccc(c2)CSC[C@@H](C(=O)N[C@@H](CC(=O)O)C(=O)N[C@@H](Cc2c[nH]cn2)C(=O)N[C@@H](C)C(=O)N[C@@H](CCCNC(=N)N)C(=O)N[C@@H](CC(=O)O)C(N)=O)NC(=O)[C@H](Cc2ccccc2)NC(=O)[C@H](CCC(=O)O)NC(=O)[C@H]([C@@H](C)O)NC(=O)[C@@H]2CCCN2C(=O)[C@@H]2CCCN2C1=O` [3BP-3196, Ac-Met-[Cys(3MeBn)-Pro-Pro-Thr-Glu-Phe-Cys]-Asp-His-Ala-Arg-Asp-NH2] (Ac-MCPPTEFCDHARD-NH2; linker 2-8 via mXylylene), the share remaining at 4 h, 9.8 µM in series [1] is 87%. Also, the IC50 in series [2] and in series [3] was below 10 nM in each case.

Take `CSCC[C@H](NC(C)=O)C(=O)N[C@H]1CSCc2cccc(c2)CSC[C@@H](C(=O)N[C@@H](CC(=O)O)C(=O)N[C@@H](Cc2c[nH]cn2)C(=O)N[C@@](C)(Cc2ccccc2)C(=O)N[C@@H](CCCNC(=N)N)C(=O)N[C@@H](CC(=O)O)C(N)=O)NC(=O)[C@H](Cc2ccccc2)NC(=O)[C@H](CCC(=O)O)NC(=O)[C@H]([C@@H](C)O)NC(=O)[C@@H]2CCCN2C(=O)[C@@H]2CCCN2C1=O` [3BP-3203, Ac-Met-[Cys(3MeBn)-Pro-Pro-Thr-Glu-Phe-Cys]-Asp-His-Amf-Arg-Asp-NH2] (Ac-MCPPTEFCDH[αMeF]RD-NH2; linker 2-8 via mXylylene): in series [1], the amount remaining at 4 h, 9.8 µM amounted to 100%. Moreover, the IC50 in series [2] and in series [3] was below 10 nM throughout.

On to `CSCC[C@H](NC(C)=O)C(=O)N[C@H]1CSCc2cccc(c2)CSC[C@@H](C(=O)N[C@@H](CC(=O)O)C(=O)N[C@H](Cc2c[nH]cn2)C(=O)N[C@@H](Cc2ccccc2)C(=O)N[C@@H](CCCNC(=N)N)C(=O)N[C@@H](CC(=O)O)C(N)=O)NC(=O)[C@H](Cc2ccccc2)NC(=O)[C@H](CCC(=O)O)NC(=O)[C@H]([C@@H](C)O)NC(=O)[C@@H]2CCCN2C(=O)[C@@H]2CCCN2C1=O` [3BP-3210, Ac-Met-[Cys(3MeBn)-Pro-Pro-Thr-Glu-Phe-Cys]-Asp-his-Phe-Arg-Asp-NH2] (Ac-MCPPTEFCD[dH]FRD-NH2; linker 2-8 via mXylylene), for which, in series [1], the fraction remaining at 4 h, 9.8 µM worked out at 100%. Moreover, the IC50 in series [2] and in series [3] was below 10 nM in each case.

As for `CSCC[C@H](NC(C)=O)C(=O)N[C@H]1CSCc2cccc(c2)CSC[C@@H](C(=O)N[C@@H](CC(=O)O)C(=O)N[C@@H](Cc2c[nH]cn2)C(=O)N[C@H](Cc2ccccc2)C(=O)N[C@@H](CCCNC(=N)N)C(=O)N[C@@H](CC(=O)O)C(N)=O)NC(=O)[C@H](Cc2ccccc2)NC(=O)[C@H](CCC(=O)O)NC(=O)[C@H]([C@@H](C)O)NC(=O)[C@@H]2CCCN2C(=O)[C@@H]2CCCN2C1=O` [3BP-3211, Ac-Met-[Cys(3MeBn)-Pro-Pro-Thr-Glu-Phe-Cys]-Asp-His-phe-Arg-Asp-NH2] (Ac-MCPPTEFCDH[dF]RD-NH2; linker 2-8 via mXylylene), in series [1], the amount remaining at 4 h, 9.8 µM amounted to 85%. Besides, the IC50 in series [2] and in series [3] was below 10 nM throughout.

`CSCC[C@H](NC(C)=O)C(=O)N[C@H]1CSCc2cccc(c2)CSC[C@@H](C(=O)N[C@@H](CC(=O)O)C(=O)N[C@@H](Cc2c[nH]cn2)C(=O)N[C@@H](Cc2ccccc2)C(=O)N[C@H](CCCNC(=N)N)C(=O)N[C@@H](CC(=O)O)C(N)=O)NC(=O)[C@H](Cc2ccccc2)NC(=O)[C@H](CCC(=O)O)NC(=O)[C@H]([C@@H](C)O)NC(=O)[C@@H]2CCCN2C(=O)[C@@H]2CCCN2C1=O` [3BP-3212, Ac-Met-[Cys(3MeBn)-Pro-Pro-Thr-Glu-Phe-Cys]-Asp-His-Phe-arg-Asp-NH2] (Ac-MCPPTEFCDHF[dR]D-NH2; linker 2-8 via mXylylene): in series [1], the fraction remaining at 4 h, 9.8 µM amounted to 80%. Further, the IC50 in series [2] and in series [3] was below 10 nM each time.
